Where two headings read alike, the source gives them in different places.
What was measured:
[1] = system: Adult cats; assay: Nasal airway resistance (NAR) after aerosolized Compound 48/80 in anesthetized cats; assay type: in vivo
From the text: Adult cats are anesthetized with intraperitoneal injections of sodium pentobarbital. The right femoral artery and vein are cannulated for measurement of blood pressure with a pressure transducer, and for the administration of drugs. The animals are paralyzed with intravenous gallamine triethiodide and subsequently mechanically ventilated with room air, using an animal ventilator. After isolation of the cervical […], a cuffed endotracheal tube is advanced rostrally into the posterior nasopharynx and inflated to form an air-tight seal, allowing continuous measurement of pressure changes within the nasal cavity. The right nasal airway is occluded with dental impression compound, and humidified air is passed through the left nasal airway at about 1.7 liters per minute. By means of pressure transducers, nasal airway pressure and insufflation pressure can be derived and electronically recorded.
Nasal airway resistance (NAR) is determined by dividing the pressure within the nasal cavity (expressed in centimeters of water) by the air flow rate (expressed in liters per minute). Measurements with 18 subject animals yield an average baseline NAR of 2.6.
The known histamine releaser "Compound 48/80" (the condensation product of N-methyl-p-methoxyphenethylamine with formaldehyde, sold by Sigma Chemical Company, St. Louis, Missouri, USA), as a 1.0 percent solution in 0.9 percent aqueous saline solution, is aerosolized into the air stream for 2 minutes to induce an increased NAR. This effect is used to study the decongestant effects of various test substances, administered to the animals intravenously 10 minutes prior to the introduction of Compound 48/80. These substances include 0.9 percent aqueous saline (normal saline "Vehicle"), phenylpropanolamine hydrochloride at 1.0 mg/Kg of the free drug, thioperamide maleate at 10 mg/Kg of the free drug and chlorpheniramine maleate at 0.8 mg/Kg of the free drug, all of the drug compounds being in solution in 0.9 percent aqueous saline.
The experiment of the preceding example is repeated, but the intravenous drugs are varying amounts of thioperamide (administered as the maleate), in solution together with a constant 0.8 mg/Kg of chlorpheniramine ("CPA," administered as the maleate).
The experiment of preceding Example 1 is repeated, but the intravenous drug administered is clobenpropit in varying amounts, either alone or in solution together with a constant 0.8 mg/Kg of chlorpheniramine ("CPA," administered as the maleate).
To test the statement in U.S. Patent 5,217,986 that verongamine itself has decongestant activity, an experiment similar to that of preceding Example 1, but with a different vehicle, is conducted. The following results are obtained:
The experiment of preceding Example 3 is conducted, using loratadine as the antihistaminic compound at 3 mg/Kg, administered in a solution ("Vehicle") which is 30 percent Dimethylsulfoxide, 40 percent Ethanol and 30 percent normal saline, and using thioperamide as the H3 receptor antagonist at 10 mg/Kg.

[2] = biological target: T1, histamine H3 receptor (Cavia porcellus, UniProt Q9JI35); assay: Guinea pig brain membrane binding assay (displacement of radiolabeled N-alpha-methylhistamine, Korte et al.)
T1 construct: determined by a guinea pig brain membrane assay; from tissue; host or cells: guinea pig brain membranes
From the text: A particularly useful screening assay measures binding to sites in guinea pig brain membranes. This test is described in detail by Korte et al., "Characterization and Tissue Distribution of H3 Histamine Receptors in Guinea Pigs by N^α -Methylhistamine," in Biochemical and Biophysical Research Communications, Vol. 168, pages 979-986 (1990), and quantifies the displacement of bound radiolabeled N" - methylhistamine from tissues by candidate compounds. Results are expressed as "Ki" values, in nanoMolar (nM) units, which values can be considered as being dissociation constants for the H3 antagonist on the H3 receptor system, or an index of antagonist affinity for the receptor. The present inventors have evidence that decongestant activity in their invention for a given H3 antagonist concentration can be predicted to increase as the Ki value obtained from the assay for an antagonist decreases. In general, Ki values less than about 200 nM are considered necessary for an agent to be useful as an H3 antagonist in the invention.
The affinity of various histamine H3 receptor antagonists for binding sites is determined by a guinea pig brain membrane assay, according to the procedure of Korte et al., Biochemical and Biophysical Research Communications, Vol. 168, pages 979-986 (1990).

[3] = Example 1, i.v. 10 minutes prior to Compound 48/80, single drugs in 0.9 percent saline: thioperamide 10 mg/Kg, chlorpheniramine 0.8 mg/Kg, phenylpropanolamine 1.0 mg/Kg, NAR = cm of water / liters per minute, Vehicle 9.1

T1 sequence (Q9JI35 whole entry): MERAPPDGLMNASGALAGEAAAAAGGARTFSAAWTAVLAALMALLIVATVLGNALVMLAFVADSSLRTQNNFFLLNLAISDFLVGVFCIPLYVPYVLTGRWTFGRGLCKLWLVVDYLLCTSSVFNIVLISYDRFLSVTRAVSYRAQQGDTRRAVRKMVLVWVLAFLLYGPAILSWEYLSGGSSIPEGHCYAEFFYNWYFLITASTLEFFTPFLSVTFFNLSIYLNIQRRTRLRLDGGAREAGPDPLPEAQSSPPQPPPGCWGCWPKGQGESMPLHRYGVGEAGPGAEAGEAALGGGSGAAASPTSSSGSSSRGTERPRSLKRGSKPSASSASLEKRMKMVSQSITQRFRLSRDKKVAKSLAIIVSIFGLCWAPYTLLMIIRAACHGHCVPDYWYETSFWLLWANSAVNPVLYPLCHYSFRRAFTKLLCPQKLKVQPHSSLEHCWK

| SMILES | NAR [1, 3] | Ki [2] [nM] | also measured |
| --- | --- | --- | --- |
| COc1ccc(C/C(=N\O)C(=O)NCCc2c[nH]cn2)cc1Br [Verongamine, verongamine] | – | – | NAR ([1]; Example 5, Verongamine 10 mg/Kg, different vehicle, Vehicle 7.8): 7.3; Ki ([2]; guinea pig brain membranes, read-out: Ki): 280 nM |
| S=C(NC1CCCCC1)N1CCC(c2cnc[nH]2)CC1 [Thioperamide, thioperamide] | 6.7 | 12 | – |
| CCOC(=O)N1CCC(=C2c3ccc(Cl)cc3CCc3cccnc32)CC1 [Loratadine, loratadine] | – | – | NAR ([1]; Example 6, loratadine 3 mg/Kg, thioperamide 10 mg/Kg, vehicle 30 percent Dimethylsulfoxide, 40 percent Ethanol, 30 percent normal saline, Vehicle 12.6): 10.2 |
| NC(=NCc1ccc(Cl)cc1)SCCCc1cnc[nH]1 [Clobenpropit, clobenpropit] | – | 0.1 | NAR ([1]; Example 3, Clobenpropit 1.0 mg/Kg alone i.v., Vehicle 9.1): 8.5 |
| CN(C)CCC(c1ccc(Cl)cc1)c1ccccn1 (stereo not drawn) [Chlorpheniramine, chlorpheniramine] | 6.0 | – | – |
| CC(N)C(O)c1ccccc1 (stereo not drawn) [Phenylpropanolamine, phenylpropanolamine] | 2.9 | – | – |
